One test concerns the target T1, rat EP1 receptor (Rattus norvegicus, UniProt P70597).
T1 construct: expressed in transfected cells
T1 sequence (P70597 1-405): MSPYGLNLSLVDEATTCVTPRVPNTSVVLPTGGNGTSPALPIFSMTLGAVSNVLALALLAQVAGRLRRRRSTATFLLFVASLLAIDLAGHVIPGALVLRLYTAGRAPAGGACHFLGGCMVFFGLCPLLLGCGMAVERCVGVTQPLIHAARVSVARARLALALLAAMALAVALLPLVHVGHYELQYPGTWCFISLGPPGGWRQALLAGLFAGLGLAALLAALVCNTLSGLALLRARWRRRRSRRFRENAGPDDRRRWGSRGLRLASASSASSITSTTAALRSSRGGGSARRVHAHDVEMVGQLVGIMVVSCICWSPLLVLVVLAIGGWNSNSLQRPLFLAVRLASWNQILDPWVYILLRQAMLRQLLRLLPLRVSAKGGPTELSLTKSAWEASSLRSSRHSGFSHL
Put plainly: Rat EP1 receptor agonistic/antagonistic action (intracellular Ca2+, FLIPR, HEK293 stable expression cells). The conditions noted are these: inhibition of intracellular Ca2+ increasing action by PGE2. The test is classed as cell-based. As to the method:
Using rat EP1 or rat EP3β receptor stable expression cells, the intracellular Ca^2+ concentration was measured using a fluorescent imaging plate reader (FLIPR manufactured by Molecular Devices Corporation). The agonistic activity was evaluated by the intracellular Ca^2+ increasing action of the test compound, and the antagonistic activity was evaluated by the inhibiting action of the test compound on the intracellular Ca^2+ increasing action by PGE2.
The cDNA of the rat EP 1 or EP3β receptor was subcloned into an expression vector (pcDNA3.1-V5-His-topo, manufactured by Invitrogen Corporation). This expression vector was introduced into HEK293 cells (American Type Culture Collection) to prepare a rat EP1 or EP3β receptor stable expression cell line. These cells were seeded onto a 96-well poly-D-lysin treated black wall clear bottom plate (manufactured by Becton, Dickinson and Company) at 2 to 3×10^4 cell/well, and used for the experiment the next day. The measurement of the intracellular Ca^2+ concentration was carried out by an FLIPR calcium 3 assay kit (manufactured by Molecular Devices Corporation). The culture medium of each well was removed by suction and replaced with a loading buffer (Hank's balanced salt solution containing 20 mM HEPES-NaOH (pH 7.4), 2.5 mM Probenecid, 0.1% bovine serum albumin, and a color), followed by incubating at room temperature for 3 hours and loading a color. For the evaluation of the agonistic action, the change in the intracellular Ca^2+ concentration was determined from the difference in the maximum value of the intracellular Ca^2+ concentration after the addition of the test compound and the value before the addition of the test compound. For the evaluation of the antagonistic action, after incubating the test compound for 5 minutes, PGE2 was added thereto to determine the change in the intracellular Ca^2+ concentration by PGE2.
Further, NE means that the action has no significance.

Another test has as its target rat EP4 receptor (Rattus norvegicus, UniProt P43114). The test is described as follows: Evaluation test on EP4 receptor affinity in rat ([3H]PGE2 receptor binding test, membrane fraction). Details: expressed in transfected cells; host or cells: HEK293 cells, transient transfection (Lipofectamine 2000); membrane fraction used. As to conditions: [3H]PGE2 0.3 nM, membrane fraction of rat EP4 expressing HEK293 cells. The procedure:
A rat EP4 receptor cDNA was subcloned into an expression vector (pcDNA3.1-V5-His-topo, manufactured by Invitrogen Corporation) to prepare a rat EP4 expression vector. HEK293 cells were cultured in a collagen type I-treated 15 cm dish (manufactured by Asahi Techno Glass Co. Ltd.) to a confluence of 70%. An Opti-MEM culture medium at 1.2 mL/dish and a transfection reagent (Lipofectamine 2000, manufactured by Invitrogen Corporation) at 60 μL/dish were mixed, followed by being left to stand at room temperature for 5 minutes. Then, the rat EP4 receptor expression vector at 15 μg/dish was added thereto, followed by being left to stand at room temperature for 30 minutes. The liquid mixture of the transfection reagent was added into the dish, followed by culturing for 20 to 24 hours. The cell culture was carried out in a CO2 incubator (37° C., 5% CO2).
The culture medium was removed by suction, 10 mL of cooled PBS was added thereto per 15 cm dish, and the cells were scraped using a cell scraper. After washed with cooled PBS (1,200 rpm, 4° C., 5 minutes), suspended in 6 mL/dish of cooled 20 mM Tris-HCl (pH 7.4; manufactured by Nacalai Tesque Inc., 5 mM EDTA included) and homogenized using a Polytron, the homogenate was centrifuged (26,000 rpm, 20 minutes, 4° C.). The obtained precipitate was resuspended in cooled 20 mM Tris-HCl and homogenized again using a Polytron, and the homogenate was centrifuged (26,000 rpm, 20 minutes, 4° C.). The obtained precipitate was resuspended in 50 mM HEPES (pH 7.5; manufactured by Dojindo Laboratories) at 1 mL per dish, homogenized using a Polytron, and freeze-stored at −80° C. as a membrane fraction. At this time, a part thereof was used for the measurement of the protein concentration. Measurement of the protein concentration was carried out using a Protein assay stain (manufactured by Bio-Rad Laboratories) in accordance with a standard Protocol as appended in duplicate.
[^3H]PGE2 50 μL (final concentration 0.3 nM; manufactured by Perkin Elmer Co., Ltd.), 100 μL (20 μg/well) of the membrane fraction prepared from the rat EP4 expression cell, and 50 μL of a test compound were mixed in a 96-well microplate (manufactured by Sumitomo Bakelite Co., Ltd.), incubated at room temperature for 1 hour, then filtered by suction on a microplate (UniFilter-96 GF/B, manufactured by Perkin Elmer Co., Ltd.) using a cell harvester (FilterMate Harvester, manufactured by Perkin Elmer Co., Ltd.), and washed three times with 300 μL/well of a cooled assay buffer (50 mM HEPES, 10 mM MgCl2). Dilution of [^3H]PGE2 and the membrane fraction was carried out using the assay buffer, and dilution of the test compound and the unlabeled PGE2 was carried out using dimethyl sulfoxide and the assay buffer. The UniFilter-96 GF/B was treated by preliminarily washing twice with 200 μL/well of the cooled assay buffer. The UniFilter-96 GF/B after filtration was dried in a dryer overnight, 50 μL/well of a liquid scintillation cocktail (MicroScint20, manufactured by Perkin Elmer Co., Ltd.) was added thereto, and the radioactivity was then measured using a liquid scintillation counter for a microplate (TopCount, manufactured by Perkin Elmer Co., Ltd.). For measurement of the non-specific binding, an unlabeled PGE2 (final concentration 1 μM; manufactured by Cayman Chemical Company) was added. All of the measurements were carried out in duplicate, and the specific binding amount was determined by subtracting the non-specific binding amount from the total binding amount.
According to the test method as described above, the rat EP4 receptor affinity (Ki) of the compound of the formula (I) was measured. […] In this connection, Ex means Example Compound number.

Consider four molecules from patent US20110082133A1, “PYRIDONE COMPOUNDS” (priority 2008, published 2011).

In general, IC50 refers to the point on the concentration scale where inhibition reaches its midpoint. As a reminder, the Ki is the equilibrium dissociation constant of an inhibitor or competing ligand from its target.

Where a name gives a salt, the structure may show the parent alone. Some results are limits rather than exact numbers.

Sequence of rat EP4 receptor (P43114 whole entry): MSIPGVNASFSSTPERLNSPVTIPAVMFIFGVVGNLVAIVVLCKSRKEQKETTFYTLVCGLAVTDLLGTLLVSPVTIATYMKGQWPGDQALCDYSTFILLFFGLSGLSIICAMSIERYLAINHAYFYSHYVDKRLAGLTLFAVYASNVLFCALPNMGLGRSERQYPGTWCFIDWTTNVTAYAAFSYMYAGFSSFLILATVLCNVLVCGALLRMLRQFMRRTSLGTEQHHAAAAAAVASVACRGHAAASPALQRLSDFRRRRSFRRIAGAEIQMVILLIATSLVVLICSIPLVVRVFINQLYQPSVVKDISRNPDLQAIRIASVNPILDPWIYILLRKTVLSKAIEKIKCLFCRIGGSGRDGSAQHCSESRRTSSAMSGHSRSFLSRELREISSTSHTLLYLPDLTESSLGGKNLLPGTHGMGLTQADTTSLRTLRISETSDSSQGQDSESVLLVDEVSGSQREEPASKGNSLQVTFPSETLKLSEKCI

Regarding `O=C(O)c1ccc(CCn2c(CNc3cccc(OC(F)(F)F)c3)c(Cl)cc(Cl)c2=O)cc1` [Example 107], the IC50 on rat EP1 receptor was more than 10000 nM. This molecule also gave a Ki at rat EP4 receptor of 10 nM.

`O=C(O)c1ccc(CCn2c(CN3CCc4ccc(F)cc43)c(Cl)cc(Cl)c2=O)cc1` [Example 9, 4-(2-{3,5-dichloro-6-[(6-fluoro-2,3-dihydro-1H-indol-1-yl)methyl]-2-oxopyridin-1(21-1)-yl}ethyl)benzoic acid]: the IC50 at rat EP1 receptor stood at 1000 nM. Also, on rat EP4 receptor, affinity was put at a Ki of 11 nM.

As to `CN(Cc1c(Cl)cc(Cl)c(=O)n1CCc1ccc(C(=O)O)cc1)c1cccc(Cl)c1` [Example 160], the IC50 at rat EP1 receptor amounted to 2700 nM. On rat EP4 receptor, this molecule yielded a Ki of 11 nM.

`CCC[C@H]1CCCN1Cc1c(Cl)cc(Cl)c(=O)n1CCc1ccc(C(=O)O)cc1` [Example 17, 4-{2-[3,5-dichloro-2-oxo-6-{[(2S)-2-propylpyrrolidin-1-yl]methyl}pyridin-1(2H)-yl]ethyl}benzoic acid trifluoroacetate] displayed an IC50 on rat EP1 receptor of 2100 nM. The molecule also showed an inhibition constant Ki on rat EP4 receptor of 11 nM.
